The results in this text go back to patent US8603482B2, “Compositions and methods for cancer immunotherapy” (Eisai R&D Management Co., Ltd., priority 2005, dated 2013).

The test system of assay [1] is B16F10 murine melanoma cells. The experiment in a line: Survival of B16F10 melanoma-bearing mice, intratumoral GM-CSF cells with E6020. The class given is in vivo, B6 mice. To be noted: intratumoral GM-CSF cells in combination with E6020 (about 3-10 μg) when tumors palpable; versus untreated or GM-CSF cells alone; FIG. 2. How it is done: The effect of E6020 on treatment of B6 mice that were engrafted subcutaneously with 1×10^6 syngeneic B16F10 murine melanoma cells was examined. When tumors became palpable, the mice were injected intratumorally with GM-CSF cells alone, or in combination with E6020 (about 3-10 μg). Survival of the animals was monitored.

The subject of another assay is MUC1 IL-10−/− mice. Kind of assay: MUC-1 vaccine with E6020 adjuvant in mice that develop IBD followed by colon adenocarcinoma. The class given is in vivo, mouse. The protocol:
To test the effects of a MUC-1 vaccine with E6020 adjuvant for treating inflammatory bowel disease (IBD) and subsequent development of colon adenocarcinoma, an engineered mouse strain that lacks the IL-10 gene and expresses transgenic human MUC1 was used. Such mice spontaneously develop intestinal inflammation resembling IBD followed by colon adenocarcinoma. […] 4, 2006.
In these experiments, mice were immunized intranasally with […] of Tn MUC100mer ([…])×5, SEQ ID NO:1) and […] of E6020. Animals were vaccinated at about 4.5 weeks and boosted at about 6.5 weeks and 9 weeks.

A further assay concerns EGFRvIII peptide. Kind of assay: EGFRvIII peptide-specific antibody titers by ELISA after immunization with peptide-KLH conjugate. The format is in vivo, C57/BL6J mice. The following applies: for Geometric mean titer: IgG1 / Geometric mean titer: IgG2a: antigen administered with the named adjuvant, 8 animals; for IgG1 antibody titer to EGFRvIII peptide, individual animals / IgG2a antibody titer to EGFRvIII peptide, individual animals: s.c. peptide-KLH conjugate 25 μg with E6020 3 μg and/or GM-CSF 5 μg, three immunizations at three-week intervals, titer = last serum dilution with signal 0.25 OD units above background. How it is done:
To determine whether an adjuvant can enhance the effect of an oncology antigen (i.e., an antigen that can be used to vaccinate an animal against a cancer), C57/BL6J mice were immunized subcutaneously with a tumor-associated peptide, LEEKKGNYVVTDHC (SEQ ID NO: 2) (derived from a mutant form of EGFR, EGFRvIII) conjugated to the protein carrier keyhole limpet hemocyanin (KLH), with or without E6020 or murine GM-CSF, a cytokine used in cancer vaccine trials to boost immune response. E6020 was dosed at 3 μg, GM-CSF at 5 μg and the peptide-KLH conjugate at 25 μg per dose. Mice were immunized three times at intervals of three weeks. Serum was prepared from mice two weeks after each immunization and tested for EGFRvIII peptide-specific antibodies using ELISA on plates coated with EGFRvIII peptide conjugated to bovine serum albumin. The results in Table 2 are presented as titers from individual animals. The titer is defined as the last serum dilution at which a signal at 0.25 OD units above background was observed.
For orientation: ELISA stands for enzyme-linked immunosorbent assay.

Assay [2] has as its system B16F10 murine melanoma cells. Kind of assay: Survival of B16F10 melanoma-bearing mice, i.p. E6020 with s.c. GM-CSF-secreting tumor cell vaccine. The class given is in vivo, B6 mice (C57BL/6 mice). To be noted: i.p. E6020 plus s.c. irradiated B16-GM-CSF cells at separate sites, three days after s.c. B16F10 inoculation; FIG. 1. From the text:
To determine the effect of E6020, a sodium salt of ER 804057, when administered intraperitoneally with a cancer vaccine, e.g., granulocyte-macrophage colony stimulating factor (GM-CSF) secreting tumor cells, a mouse model using melanoma cells was used.
E6020 is a TLR4 (Toll-like receptor-4) agonist. B6 mice (C57BL/6 mice) were engrafted subcutaneously with 1×10^6 syngeneic B16F10 murine melanoma cells. Three days after tumor cell inoculation, the mice were either (1) vaccinated subcutaneously (s.c.) with 1×10^6 B16F10 tumor cells that were genetically modified to stably express and secrete murine GM-CSF (B16-GM-CSF cells); (2) vaccinated intraperitoneally (i.p.) with E6020; or (3) were treated with a combination of s.c. GM-CSF cell vaccination and i.p. E6020 (the GM-CSF cell vaccination and E6020 vaccination were administered at separate sites in the mice). In these experiments, the GM-CSF cells were inactivated by gamma-irradiation prior to inoculation. Survival of the animals was monitored.

Where [3] appears, read: addition of E6020 to the MUC-1 vaccine.

Several values for one entry are separate records, joined by “and”; a condition that tells them apart may be missing. Identical values can stand only once.

As for `CCCCCCCCCCCC(=O)CC(=O)N[C@H](COCC[C@@H](CCCCCCC)OC(=O)CCCCCCCCCCC)COP(=O)(O)OCCNC(=O)NCCOP(=O)(O)OC[C@@H](COCC[C@@H](CCCCCCC)OC(=O)CCCCCCCCCCC)NC(=O)CC(=O)CCCCCCCCCCC` [E6020], the “survival of tumor-bearing mice” value in assay [1] is recorded as “increased survival”. For the same molecule, in the assay on MUC1 IL-10−/− mice (setting [3]), the “appearance of histologically detected tumors” value is “suppresses the appearance of histologically detected tumors” and the “progression to rectal prolapse associated with IBD” value is “slow the progression to rectal prolapse associated with IBD”. Further, in the assay on MUC1 IL-10−/− mice (mice with colon tumors / mice treated, MUC1 IL-10−/− mice), the Colon tumors is 3/3. Also, in the assay with EGFRvIII peptide, the “Geometric mean titer: IgG1” value is listed as 20182; the “Geometric mean titer: IgG2a” value is reported as 10091; the “IgG1 antibody titer to EGFRvIII peptide, individual animals” value is 24000 (6×) and 48000 and 3000; the “IgG2a antibody titer to EGFRvIII peptide, individual animals” value was 12000 (3×) and 24000 and 48000 and 1500 and 6000 (2×). Further, the “effect on antigen-specific IgG2a titers (in words)” value with EGFRvIII peptide (vaccination with EGFRvIII peptide-KLH) is “enhanced the mean titer of antigen-specific IgG2a”. Besides, the “therapeutic efficacy (survival of tumor-bearing mice)” value in assay [2] is “enhanced the therapeutic efficacy of the GM-CSF cells”.

B1: GM-CSF: murine GM-CSF, a cytokine used in cancer vaccine trials to boost immune response (protein, UniProt P01587 18-141, looked up)
Granulocyte-macrophage …: APTRSPITVTRPWKHVEAIKEALNLLDDMPVTLNEEVEVVSNEFSFKKLTCVQTRLKIFEQGLRGNFTKLKGALNMTASYYQTYCPPTPETDCETQVTTYADFIDSLKTFLTDIPFECKKPGQK
As to B1, in the assay on EGFRvIII peptide, the “Geometric mean titer: IgG1” value turned out to be 24000; the “Geometric mean titer: IgG2a” value is 3568; the “IgG1 antibody titer to EGFRvIII peptide, individual animals” value was 24000 (2×) and 48000 (3×) and 12000 (3×); the “IgG2a antibody titer to EGFRvIII peptide, individual animals” value is 3000 (2×) and 6000 (3×) and 24000 and 750 (2×).
